Test results taken from publication PMC3402233 (International Journal of Pharmaceutics, 2012).

Assays:
[1] = Bi-directional transport across MDCKII-WT cell monolayers; type: in vitro ADME, canine; conditions: dog, MDCK
[2] = tested on: MDCK-WT cell monolayers; assay: as above; type: in vitro ADME, canine; conditions: 5μM vandetanib
[3] = biological target: T1, P-gp (MDR1) (Homo sapiens, UniProt P08183); assay: Bi-directional transport across MDCKII-MDR1 cell monolayers; type: in vitro ADME
[4] = biological target: T2, Bcrp1 (Mus musculus, UniProt Q7TMS5); assay: Bi-directional transport across MDCKII-Bcrp1 cell monolayers; type: in vitro ADME, murine
T2 sequence (Q7TMS5 1-657): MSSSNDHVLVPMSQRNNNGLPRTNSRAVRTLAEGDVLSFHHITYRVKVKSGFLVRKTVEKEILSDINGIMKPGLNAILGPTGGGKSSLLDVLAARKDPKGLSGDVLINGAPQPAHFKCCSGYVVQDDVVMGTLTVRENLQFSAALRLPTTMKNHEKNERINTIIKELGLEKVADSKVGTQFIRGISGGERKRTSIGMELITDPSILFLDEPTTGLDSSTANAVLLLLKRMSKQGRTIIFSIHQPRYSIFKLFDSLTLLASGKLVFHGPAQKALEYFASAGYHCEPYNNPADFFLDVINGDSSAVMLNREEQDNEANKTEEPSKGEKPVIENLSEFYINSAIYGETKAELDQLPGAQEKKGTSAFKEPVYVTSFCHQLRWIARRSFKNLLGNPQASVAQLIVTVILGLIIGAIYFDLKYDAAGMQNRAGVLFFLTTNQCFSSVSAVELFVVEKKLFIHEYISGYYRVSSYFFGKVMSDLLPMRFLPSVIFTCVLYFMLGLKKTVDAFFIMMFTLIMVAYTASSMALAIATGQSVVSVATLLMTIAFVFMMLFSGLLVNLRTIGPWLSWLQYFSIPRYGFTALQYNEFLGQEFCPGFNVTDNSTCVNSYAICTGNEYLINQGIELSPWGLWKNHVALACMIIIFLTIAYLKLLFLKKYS

[5] = Brain accumulation and plasma pharmacokinetics of vandetanib in FVB mice; type: in vivo, male FVB wild type mice
[6] = biological target: T1, P-gp (MDR1); assay: Cellular accumulation of vandetanib in MDCKII-MDR1 vs parent WT cells; conditions: 100nM vandetanib, 60 min accumulation
[7] = biological target: P-gp (Homo sapiens, UniProt P08183); assay: P-gp inhibition: [3H]digoxin accumulation in MDCK-MDR1 cells; type: cell-based
[8] = biological target: T2, Bcrp1; assay: Bcrp1 inhibition: [3H]abacavir accumulation in MDCK-Bcrp1 cells; type: cell-based, murine; conditions: 10, 25 and 50μM inhibitor
[9] = male, FVB, mouse, plasma, iv, 5 mg/kg

T1 sequence (P08183 whole entry): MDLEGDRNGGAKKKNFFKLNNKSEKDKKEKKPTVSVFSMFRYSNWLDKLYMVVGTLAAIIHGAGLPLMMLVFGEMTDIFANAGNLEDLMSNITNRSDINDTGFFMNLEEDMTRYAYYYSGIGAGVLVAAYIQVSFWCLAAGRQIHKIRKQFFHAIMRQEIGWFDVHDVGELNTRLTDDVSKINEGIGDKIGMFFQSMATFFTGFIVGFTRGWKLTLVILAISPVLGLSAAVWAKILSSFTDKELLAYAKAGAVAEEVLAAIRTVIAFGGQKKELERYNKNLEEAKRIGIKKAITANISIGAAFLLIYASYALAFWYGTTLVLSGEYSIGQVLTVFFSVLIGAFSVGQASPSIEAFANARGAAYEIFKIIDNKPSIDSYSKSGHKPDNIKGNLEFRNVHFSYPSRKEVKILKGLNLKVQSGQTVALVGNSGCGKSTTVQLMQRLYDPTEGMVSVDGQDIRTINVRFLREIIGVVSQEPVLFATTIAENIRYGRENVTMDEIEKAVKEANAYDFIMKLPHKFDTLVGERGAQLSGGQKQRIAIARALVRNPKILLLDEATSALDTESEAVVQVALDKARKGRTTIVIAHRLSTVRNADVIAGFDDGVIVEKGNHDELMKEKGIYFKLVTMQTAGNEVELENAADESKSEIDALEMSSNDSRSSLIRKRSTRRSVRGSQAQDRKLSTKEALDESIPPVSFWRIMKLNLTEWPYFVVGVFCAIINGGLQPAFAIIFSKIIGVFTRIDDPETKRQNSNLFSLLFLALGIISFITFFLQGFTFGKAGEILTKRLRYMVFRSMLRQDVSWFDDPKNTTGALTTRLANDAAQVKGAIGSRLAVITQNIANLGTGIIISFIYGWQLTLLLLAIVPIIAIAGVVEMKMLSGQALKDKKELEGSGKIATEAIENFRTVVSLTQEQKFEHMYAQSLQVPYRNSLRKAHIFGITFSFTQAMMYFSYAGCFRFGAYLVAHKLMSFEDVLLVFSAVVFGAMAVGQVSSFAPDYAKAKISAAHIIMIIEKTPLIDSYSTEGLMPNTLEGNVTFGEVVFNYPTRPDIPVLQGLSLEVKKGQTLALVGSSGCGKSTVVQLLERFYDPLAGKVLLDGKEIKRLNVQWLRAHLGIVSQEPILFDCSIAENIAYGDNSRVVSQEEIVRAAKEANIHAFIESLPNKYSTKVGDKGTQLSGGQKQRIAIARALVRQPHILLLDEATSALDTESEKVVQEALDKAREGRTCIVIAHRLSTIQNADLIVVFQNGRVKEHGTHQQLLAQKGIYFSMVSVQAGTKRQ
Chain of P-gp (P08183 whole entry): as above

Row | Papp A→B at 240 min, 5 μM [1] | Papp B→A at 240 min, 5 μM [1] | efflux ratio at 240 min, 5 μM [1] | Directionality of vandetanib transport across WT cells [2] | Papp A→B at 240 min, 5 μM ([3]; dog, MDCK-MDR1) | Papp B→A at 240 min, 5 μM ([3]; dog, MDCK-MDR1) | efflux ratio at 240 min, 5 μM ([3]; dog, MDCK-MDR1) | Papp A→B at 240 min, 5 μM [4] | Papp B→A at 240 min, 5 μM [4] | efflux ratio at 240 min, 5 μM [4] | AUC(0-t) ([5]; male, FVB, mouse, brain, iv, 5 mg/kg) | AUC(0-t) [5, 9] | Vd [5, 9] | clearance [5, 9] | IC50 [7] | Intracellular accumulation of [3H]abacavir in MDCK-Bcrp1 cells in the presence of inhibitor [8] | Structure (SMILES) | Directional flux of vandetanib across MDR1 transfected cells ([3]; 5μM vandetanib) | Brain concentrations compared with plasma concentrations ([5]; vandetanib 5mg/kg i.v. alone, 15, 30, 60 and 120min) | Vandetanib accumulation in MDR1 overexpressing cells versus WT cells [6]
1 | 7.57 ± 0.52 ×10⁻⁶ cm/s | 8.08 ± 0.17 ×10⁻⁶ cm/s | 1.06 | no directionality in transport | 5.73 ± 0.29 ×10⁻⁶ cm/s | 4.66 ± 0.26 ×10⁻⁶ cm/s | 0.81 | 5.66 ± 1.26 ×10⁻⁶ cm/s | 42.3 ± 2.64 ×10⁻⁶ cm/s | 7.5 | 1050 ng·h/mL | 5090 ng·h/mL | 1.3 L/kg | 9.36 mL/min/kg | – | – | COc1cc2c(Nc3ccc(Br)cc3F)ncnc2cc1OCC1CCN(C)CC1 [Vandetanib] | No significant difference was observed in the directional flux | Brain concentrations were significantly lower than the plasma concentration | not statistically different from WT cells
2 | – | – | – | – | – | – | – | – | – | – | – | – | – | – | 3 µM | increased significantly | CO[C@H]1C[C@@H]2CC[C@@H](C)[C@@](O)(O2)C(=O)C(=O)N2CCCC[C@H]2C(=O)O[C@H]([C@H](C)C[C@@H]2CC[C@@H](OCCO)[C@H](OC)C2)CC(=O)[C@H](C)/C=C(\C)[C@@H](O)[C@@H](OC)C(=O)[C@H](C)C[C@H](C)/C=C/C=C/C=C/1C [everolimus] | – | – | –
3 | – | – | – | – | – | – | – | – | – | – | – | – | – | – | 3.5 µM | increased significantly | CO[C@H]1C[C@@H]2CC[C@@H](C)[C@@](O)(O2)C(=O)C(=O)N2CCCC[C@H]2C(=O)O[C@H]([C@H](C)C[C@@H]2CC[C@@H](OC(=O)C(C)(CO)CO)[C@H](OC)C2)CC(=O)[C@H](C)/C=C(\C)[C@@H](O)[C@@H](OC)C(=O)[C@H](C)C[C@H](C)/C=C/C=C/C=C/1C [temsirolimus] | – | – | –
